In US6737383B1, “Herbicidal oxadiazolidines” (priority 1999, dated 2004):

Key:
surinam grass = assay: Test B pre/postemergence surinam grass; assay type: in vivo, Brachiaria decumbens
In short: (§1)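 Herbicidal effect was estimated by eye on a ten-point control scale after plants spent twelve to sixteen days in a greenhouse following soil or foliar treatment. Foliar sprays targeted plants at one to four leaves; all doses were formulated in a non-phytotoxic solvent with surfactant.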

wheat = assay: Test B pre/postemergence wheat; assay type: in vivo, Triticum aestivum
In short: as §1

blackgrass = assay: Test B pre/postemergence blackgrass; assay type: in vivo, Alopecurus myosuroides
In short: as §1

pigweed = assay: Test B pre/postemergence pigweed; assay type: in vivo, Amaranthus retroflexus
In short: as §1

morningglory = assay: Test B pre/postemergence morningglory; assay type: in vivo, Ipomoea hederacea
In short: as §1

soybean = assay: Test B pre/postemergence soybean; assay type: in vivo, Glycine max
In short: as §1

bedstraw = assay: Test B pre/postemergence bedstraw; assay type: in vivo, Galium aparine
In short: as §1

wild oat = assay: Test B pre/postemergence wild oat; assay type: in vivo, Avena fatua
In short: as §1

cocklebur = assay: Test B pre/postemergence cocklebur; assay type: in vivo, Xanthium strumarium
In short: as §1

giant foxtail = assay: Test B pre/postemergence giant foxtail; assay type: in vivo, Setaria faberii
In short: as §1

velvetleaf = assay: Test B pre/postemergence velvetleaf; assay type: in vivo, Abutilon theophrasti
In short: as §1

crabgrass = assay: Test B pre/postemergence crabgrass; assay type: in vivo, Digitaria sanguinalis
In short: as §1

smallflower flatsedge = assay: Test B flood test smallflower flatsedge; assay type: in vivo, Cyperus difformis
In short: (§2)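 Read-out is a visual response score from 0 (no effect) to 10 (complete control), assigned by comparison with untreated controls. Treatment was applied at the 2-leaf stage, and plants stayed in the greenhouse for twelve to sixteen days before scoring.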

rice = assay: Test B flood test rice; assay type: in vivo, Oryza sativa
In short: as §2

purple nutsedge = assay: Test B pre/postemergence purple nutsedge; assay type: in vivo, Cyperus rotundus
In short: as §1

bamyardgrass = assay: Test B flood test barnyardgrass; assay type: in vivo, Echinochloa crus-galli
In short: as §2

[1] = Preemergence, Rate 62 g/ha, scale of 0 to 10 where 0 is no effect and 10 is complete control
[2] = Preemergence, Rate 125 g/ha, 0 is no effect, 10 is complete control
[3] = Preemergence, Rate 250 g/ha, scale 0 to 10, 0 is no effect, 10 is complete control
[4] = Preemergence, Rate 500 g/ha, scale 0 to 10 (0 no effect, 10 complete control)
[5] = Rate 62 g/ha, Postemergence, scale of 0 to 10 where 0 is no effect and 10 is complete control
[6] = Rate 125 g/ha, Postemergence, scale 0 to 10
[7] = Rate 500 g/ha, Postemergence, scale 0 to 10
[8] = Rate 62 g/ha, headed Pre-emergence (flood test species), scale 0 to 10 (0 no effect, 10 complete control)
[9] = Rate 125 g/ha, Pre-emergence, flood test species, scale 0 to 10 where 0 is no effect and 10 is complete control
[10] = Rate 250 g/ha, Pre-emergence, flood-test species, scale 0 to 10, 0 is no effect, 10 is complete control
[11] = Rate 500 g/ha, headed Pre-emergence (flood test species), scale 0 to 10 (0 no effect, 10 complete control)

CCN(C(=O)n1oc(=O)n(C(C)C)c1=O)c1nncs1 [Compound 190]
B. signalgrass plant response rating (surinam grass; [1]): 0
B. signalgrass plant response rating (0 to 10 scale) (surinam grass; [2]): 0
B. signalgrass plant response rating (surinam grass; [3]): 0
B. signalgrass plant response rating (surinam grass; [4]): 0
B. signalgrass plant response rating (surinam grass; [5]): 0
B. signalgrass plant response rating (surinam grass; Rate 125 g/ha, Postemergence, scale 0 (no effect) to 10 (complete control)): 0
Plant response rating, B. signalgrass (surinam grass; Rate 250 g/ha, Postemergence, scale 0 to 10, 0 is no effect, 10 is complete control): 0
B. signalgrass plant response rating (surinam grass; Rate 500 g/ha, Postemergence, scale 0 to 10, 0 no effect, 10 complete control): 0
Wheat plant response rating (wheat; [1]): 0
Wheat plant response rating (wheat; [3]): 0
Wheat plant response rating (wheat; [4]): 0
Wheat plant response rating (wheat; [5]): 0
Wheat plant response rating (wheat; [6]): 0
Plant response rating (0 to 10; 0 is no effect, 10 is complete control), Wheat (wheat; Rate 250 g/ha, Postemergence): 0
Blackgrass plant response rating (blackgrass; [1]): 0
Blackgrass plant response rating (0 to 10 scale) (blackgrass; [2]): 0
Blackgrass plant response rating (blackgrass; [3]): 0
Blackgrass plant response rating (blackgrass; [4]): 3
Blackgrass plant response rating (blackgrass; [5]): 0
Blackgrass plant response rating (blackgrass; [6]): 0
Plant response rating (0 to 10; 0 is no effect, 10 is complete control), Blackgrass (blackgrass; Rate 250 g/ha, Postemergence): 0
Blackgrass plant response rating (blackgrass; [7]): 0
Redroot pigweed plant response rating (pigweed; [1]): 0
Redroot pigweed plant response rating (0 to 10 scale) (pigweed; [2]): 0
Redroot pigweed plant response rating (pigweed; [3]): 0
Redroot pigweed plant response rating (pigweed; [4]): 0
Redroot pigweed plant response rating (pigweed; [5]): 0
Redroot pigweed plant response rating (pigweed; [6]): 0
Plant response rating (0 to 10; 0 is no effect, 10 is complete control), Redroot pigweed (pigweed; Rate 250 g/ha, Postemergence): 0
Redroot pigweed plant response rating (pigweed; [7]): 0
Morningglory plant response rating (morningglory; [1]): 0
Morningglory plant response rating (0 to 10 scale) (morningglory; [2]): 0
Morningglory plant response rating (morningglory; [3]): 0
Morningglory plant response rating (morningglory; [4]): 0
Morningglory plant response rating (morningglory; [5]): 0
Morningglory plant response rating (morningglory; [6]): 0
Plant response rating (0 to 10; 0 is no effect, 10 is complete control), Morningglory (morningglory; Rate 250 g/ha, Postemergence): 0
Morningglory plant response rating (morningglory; [7]): 0
Soybean plant response rating (soybean; [1]): 0
Soybean plant response rating (0 to 10 scale) (soybean; [2]): 0
Soybean plant response rating (soybean; [3]): 0
Soybean plant response rating (soybean; [4]): 0
Soybean plant response rating (soybean; [5]): 0
Soybean plant response rating (soybean; [6]): 0
Plant response rating (0 to 10; 0 is no effect, 10 is complete control), Soybean (soybean; Rate 250 g/ha, Postemergence): 0
Soybean plant response rating (soybean; [7]): 0
Bedstraw plant response rating (bedstraw; [1]): 0
Bedstraw plant response rating (bedstraw; [3]): 0
Bedstraw plant response rating (bedstraw; [4]): 4
Bedstraw plant response rating (bedstraw; [5]): 0
Bedstraw plant response rating (bedstraw; [6]): 0
Plant response rating (0 to 10; 0 is no effect, 10 is complete control), Bedstraw (bedstraw; Rate 250 g/ha, Postemergence): 0
Bedstraw plant response rating (bedstraw; [7]): 0
Wild oats plant response rating (wild oat; [1]): 0
Wild oats plant response rating (wild oat; [3]): 0
Wild oats plant response rating (wild oat; [4]): 0
Wild oats plant response rating (wild oat; [5]): 0
Wild oats plant response rating (wild oat; [6]): 0
Plant response rating (0 to 10; 0 is no effect, 10 is complete control), Wild oats (wild oat; Rate 250 g/ha, Postemergence): 0
Cocklebur plant response rating (cocklebur; [1]): 0
Cocklebur plant response rating (0 to 10 scale) (cocklebur; [2]): 0
Cocklebur plant response rating (cocklebur; [3]): 0
Cocklebur plant response rating (cocklebur; [4]): 0
Cocklebur plant response rating (cocklebur; [5]): 0
Cocklebur plant response rating (cocklebur; [6]): 0
Plant response rating (0 to 10; 0 is no effect, 10 is complete control), Cocklebur (cocklebur; Rate 250 g/ha, Postemergence): 0
Cocklebur plant response rating (cocklebur; [7]): 0
Giant foxtail plant response rating (giant foxtail; [1]): 0
Giant foxtail plant response rating (0 to 10 scale) (giant foxtail; [2]): 0
Giant foxtail plant response rating (giant foxtail; [3]): 0
Giant foxtail plant response rating (giant foxtail; [4]): 0
Giant foxtail plant response rating (giant foxtail; [5]): 0
Giant foxtail plant response rating (giant foxtail; [6]): 0
Plant response rating (0 to 10; 0 is no effect, 10 is complete control), Giant foxtail (giant foxtail; Rate 250 g/ha, Postemergence): 0
Giant foxtail plant response rating (giant foxtail; [7]): 0
Velvetleaf plant response rating (velvetleaf; [1]): 0
Velvetleaf plant response rating (velvetleaf; [3]): 0
Velvetleaf plant response rating (velvetleaf; [4]): 0
Velvetleaf plant response rating (velvetleaf; [5]): 0
Velvetleaf plant response rating (velvetleaf; [6]): 0
Plant response rating (0 to 10; 0 is no effect, 10 is complete control), Velvetleaf (velvetleaf; Rate 250 g/ha, Postemergence): 0
Crabgrass plant response rating (crabgrass; [1]): 0
Crabgrass plant response rating (0 to 10 scale) (crabgrass; [2]): 0
Crabgrass plant response rating (crabgrass; [3]): 0
Crabgrass plant response rating (crabgrass; [4]): 0
Crabgrass plant response rating (crabgrass; [5]): 0
Crabgrass plant response rating (crabgrass; [6]): 0
Plant response rating (0 to 10; 0 is no effect, 10 is complete control), Crabgrass (crabgrass; Rate 250 g/ha, Postemergence): 0
Crabgrass plant response rating (crabgrass; [7]): 0
S. Flatsedge plant response rating (smallflower flatsedge; [8]): 0
S. Flatsedge plant response rating (smallflower flatsedge; [9]): 0
S. Flatsedge plant response rating (smallflower flatsedge; [10]): 0
S. Flatsedge plant response rating (smallflower flatsedge; Rate 500 g/ha, Pre-emergence, flood test species, scale 0 to 10 (0 no effect, 10 complete control)): 0
Rice plant response rating (rice; [8]): 0
Rice plant response rating (rice; [9]): 0
Rice plant response rating (rice; [10]): 0
Plant response rating, Rice (rice; [11]): 0
Nutsedge plant response rating (purple nutsedge; [1]): 0
Nutsedge plant response rating (purple nutsedge; [3]): 0
Nutsedge plant response rating (purple nutsedge; [4]): 0
Nutsedge plant response rating (purple nutsedge; [5]): 0
Nutsedge plant response rating (purple nutsedge; [6]): 0
Plant response rating (0 to 10; 0 is no effect, 10 is complete control), Nutsedge (purple nutsedge; Rate 250 g/ha, Postemergence): 0
Nutsedge plant response rating (purple nutsedge; [7]): 0
Barnyardgrass plant response rating (bamyardgrass; [8]): 0
Barnyardgrass plant response rating (bamyardgrass; [9]): 0
Barnyardgrass plant response rating (bamyardgrass; [10]): 0
Plant response rating, Barnyardgrass (bamyardgrass; [11]): 0
